{"source": "patent US20260042762A1", "about": "(Kymera Therapeutics, Inc., priority 2018, published 2026)", "data": [{"biological_target": "T1, MerTK (Homo sapiens, UniProt Q12866)", "T1 construct": "endogenous in cells; host or cells: Jurkat cells", "T1 sequence (Q12866 21-999)": "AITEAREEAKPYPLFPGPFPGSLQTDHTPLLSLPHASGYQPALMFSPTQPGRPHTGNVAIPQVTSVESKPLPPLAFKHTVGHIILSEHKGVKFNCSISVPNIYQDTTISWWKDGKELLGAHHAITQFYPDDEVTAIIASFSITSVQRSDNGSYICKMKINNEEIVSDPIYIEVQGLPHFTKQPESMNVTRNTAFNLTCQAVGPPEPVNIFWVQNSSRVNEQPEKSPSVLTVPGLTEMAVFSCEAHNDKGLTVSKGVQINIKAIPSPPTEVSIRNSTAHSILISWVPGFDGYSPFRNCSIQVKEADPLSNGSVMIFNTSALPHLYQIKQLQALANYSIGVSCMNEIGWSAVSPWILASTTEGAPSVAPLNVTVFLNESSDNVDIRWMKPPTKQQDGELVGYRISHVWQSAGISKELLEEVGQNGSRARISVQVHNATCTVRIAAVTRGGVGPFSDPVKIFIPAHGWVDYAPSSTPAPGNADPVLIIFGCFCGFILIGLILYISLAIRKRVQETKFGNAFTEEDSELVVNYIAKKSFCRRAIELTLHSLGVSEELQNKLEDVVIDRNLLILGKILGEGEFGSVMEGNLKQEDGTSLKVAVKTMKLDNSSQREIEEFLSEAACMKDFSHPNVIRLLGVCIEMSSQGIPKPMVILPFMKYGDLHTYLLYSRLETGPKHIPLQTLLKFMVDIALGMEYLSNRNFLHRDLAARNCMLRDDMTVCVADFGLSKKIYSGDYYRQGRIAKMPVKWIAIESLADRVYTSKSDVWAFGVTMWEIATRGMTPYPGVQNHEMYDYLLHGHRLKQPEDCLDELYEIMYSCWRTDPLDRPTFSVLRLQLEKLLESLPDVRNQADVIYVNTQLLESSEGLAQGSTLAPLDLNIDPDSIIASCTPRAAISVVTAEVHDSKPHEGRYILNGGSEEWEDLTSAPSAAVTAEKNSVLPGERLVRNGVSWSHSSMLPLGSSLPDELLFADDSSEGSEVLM", "test": "MerTk degradation in Jurkat cells (Western blot)", "assay_type": "cell-based", "details": "Jurkat, 4 h, 0.001-1 μM, 4 hour-incubation at 37° C., read-out: Jurkat Max % MerTK Degradation", "procedure,_shortened": "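Jurkat cells treated 4 h at 37 °C with compound at 0.001-1 μM final. RIPA lysates quantified by BCA, then MerTK probed by Western blot against actin loading control with IR-dye secondaries and Odyssey imaging.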", "units": {"Dmax": "%"}, "values": [{"smiles": "Cn1c(=O)n([C@H]2CCC(=O)NC2=O)c2ccc(CCCOCCN3CC(N4CCN(Cc5ccc(-c6cn([C@H]7CC[C@H](O)CC7)c7nc(NCCC(F)(F)F)ncc67)cc5)CC4)C3)cc21", "note": "[I-91, 3-(3-methyl-2-oxo-5-[3-[2-(3-[4-[(4-[7-[trans-4-hydroxycyclohexy1]-2-[(3,3,3-trifluoropropyl)amino]-7H-pyrrolo[2,3-d]pyrimidin-5-y1]phenyl)methyl]piperazin-1-yl]azetidin-1-yl)ethoxy]propyl]-2,3-dihydro-1H-1,3-benzodiazol-1-yl)piperidine-2,6-dione; formic acid]", "Dmax": "> 50"}, {"smiles": "O=C(c1ccc(CNCc2ccc(-c3ccc4c(cnn4CC4CC4)c3)cc2)cc1)N1CCC(C2CCN(Cc3ccc(-c4cn([C@H]5CC[C@H](O)CC5)c5nc(NCCC(F)(F)F)ncc45)cc3)CC2)CC1", "note": "[I-202, (4-(((4-(1-(cyclopropylmethyl)-1H-indazol-5-yl)benzyl)amino)methyl)phenyl)(1′-(4-(7-(trans-4-hydroxycyclohexyl)-2-((3,3,3-trifluoropropyl)amino)-7H-pyrrolo[2,3-d]pyrimidin-5-yl)benzyl)-[4,4′-bipiperidin]-1-yl)methanone; formic acid]", "Dmax": "< 20"}, {"smiles": "Cn1c(=O)n([C@H]2CCC(=O)NC2=O)c2ccc(COCCN3CCN(Cc4ccc(-c5cn([C@H]6CC[C@H](O)CC6)c6nc(NCCC(F)(F)F)ncc56)cc4)CC3)cc21", "note": "[I-151, trans-3-[3-methyl-2-oxo-5-[(2-[4-[(4-[7-[4-hydroxycyclohexy1]-2-[(3,3,3-trifluoropropyl)amino]pyrrolo[2,3-d]pyrimidin-5-y1]phenyl)methyl]piperazin-1-yl]ethoxy)methyl]-1,3-benzodiazol-1-yl]piperidine-2,6-dione; formic acid]", "Dmax": "> 50"}, {"smiles": "CC(c1ccc(-c2cn([C@H]3CC[C@H](O)CC3)c3nc(NCCC(F)(F)F)ncc23)cc1)N1CCN(CCCCOCCCc2ccc3c(c2)n(C)c(=O)n3C2CCC(=O)NC2=O)CC1", "note": "(stereo partly drawn) [I-81, 3-[3-methyl-2-oxo-5-[3-(4-[4-[1-(4-[7-[trans-4-hydroxycyclohexyl]-2-[(3,3,3-trifluoropropyl)amino]-7H-pyrrolo[2,3-d]pyrimidin-5-yl]phenyl)ethyl]piperazin-1-y1]butoxy)propyl]-2,3-dihydro-1H-1,3-benzodiazol-1-yl]piperidine-2,6-dione]", "Dmax": "> 50"}, {"smiles": "Cc1ncsc1-c1ccc(CNC(=O)[C@@H]2C[C@@H](O)CN2C(=O)[C@@H](NC(=O)C2(F)CC2)C(C)(C)C)c(OCCOCCOCCOCCN2CCN(Cc3ccc(-c4cn([C@H]5CC[C@H](O)CC5)c5nc(NCCC(F)(F)F)ncc45)cc3)CC2)c1", "note": "[I-190]", "Dmax": "> 50"}, {"smiles": "Cn1c(=O)n([C@H]2CCC(=O)NC2=O)c2ccc(CCCOCCOCCN3CCN(Cc4ccc(-c5nn([C@H]6CC[C@H](O)CC6)c6nc(NCCC(F)(F)F)ncc56)cc4)CC3)cc21", "note": "[I-64, 3-(3-methyl-2-oxo-5-[3-[2-(2-[4-[(4-[1-[trans-4-hydroxycyclohexyl]-6-[(3,3,3-trifluoropropyl)amino]-1H-pyrazolo[3,4-d]pyrimidin-3-yl]phenyl)methyl]piperazin-1-yl]ethoxy)ethoxy]propyl]-2,3-dihydro-1H-1,3-benzodiazol-1-y1)piperidine-2,6-dione]", "Dmax": "> 50"}, {"smiles": "Cn1c(=O)n([C@H]2CCC(=O)NC2=O)c2ccc(COCCCN3CCN(Cc4ccc(-c5cn([C@H]6CC[C@H](O)CC6)c6nc(NCCC(F)(F)F)ncc56)cc4)CC3)cc21", "note": "[I-149, 3-[3-methyl-2-oxo-5-[(3-[4-[(4-[7-[trans-4-hydroxycyclohexy1]-2-[(3,3,3-trifluoropropyl)amino]pyrrolo[2,3-d]pyrimidin-5-yl]phenyl)methyl]piperazin-1-yl]propoxy)methyl]-1,3-benzodiazol-1-y1]piperidine-2,6-dione; formic acid]", "Dmax": "> 50"}, {"smiles": "C[C@@H](c1ccc(-c2cn([C@H]3CC[C@H](O)CC3)c3nc(NCCC(F)(F)F)ncc23)cc1)N1CCN(CCCOCCCc2ccc3c(c2)n(C)c(=O)n3C2CCC(=O)NC2=O)CC1", "note": "(stereo partly drawn) [I-102, 3-[3-methyl-2-oxo-5-[3-(3-[4-[(1S)-1-(4-[7-[trans-4-hydroxycyclohexy1]-2-[(3,3,3-trifluoropropyl)amino]-7H-pyrrolo[2,3-d]pyrimidin-5-yl]phenyl)ethyl]piperazin-1-yl]propoxy)propyl]-2,3-dihydro-1H-1,3-benzodiazol-1-yl]piperidine-2,6-dione; formic acid]", "Dmax": "> 50"}, {"smiles": "Cn1c(=O)n([C@H]2CCC(=O)NC2=O)c2ccc(CCCC3CCN(C4CCN(Cc5ccc(-c6cn([C@H]7CC[C@H](O)CC7)c7nc(NCCC(F)(F)F)ncc67)cc5)CC4)CC3)cc21", "note": "[I-145, 3-[3-methyl-2-oxo-5-(3-[1-[(4-[7-[trans-4-hydroxycyclohexyl]-2-[(3,3,3-trifluoropropyl)amino]pyrrolo[2,3-d]pyrimidin-5-yl]phenyl)methyl]-[1,4-bipiperidin]-4-yl]propyl)-1,3-benzodiazol-1-y1]piperidine-2,6-dione; formic acid]", "Dmax": "> 50"}, {"smiles": "CCCCNc1ncc2c(-c3ccc(CNCCOCCCc4ccc5c(c4)n(C)c(=O)n5[C@H]4CCC(=O)NC4=O)cc3)cn([C@H]3CC[C@H](O)CC3)c2n1", "note": "[I-54, 3-[5-(3-[2-[([4-[2-(butylamino)-7-[trans-4-hydroxycyclohexyl]-7H-pyrrolo[2,3-d]pyrimidin-5-yl]phenyl]methyl)amino]ethoxy]propyl)-3-methyl-2-oxo-2,3-dihydro-1H-1,3-benzodiazol-1-yl]piperidine-2,6-dione]", "Dmax": "20 to 50"}, {"smiles": "COC[C@H](C)Nc1ncc2c(-c3ccc(CN4CCN(CCOCCOCCOCCOCCNc5cccc6c5C(=O)N(C5CCC(=O)NC5=O)C6=O)CC4)cc3)cn([C@H]3CC[C@H](O)CC3)c2n1", "note": "(stereo partly drawn) [I-11, Trans-2-(2,6-dioxopiperidin-3-yl)-4-[15-(4-[[4-(2-[[(2S)-1-methoxypropan-2-yl]amino]-7-[4-hydroxycyclohexyl]-7H-pyrrolo[2,3-d]pyrimidin-5-yl)phenyl]methyl]piperazin-1-yl)-4,7,10,13-tetraoxa-1-azapentadecan-1-yl]-2,3-dihydro-1H-isoindole-1,3-dione]", "Dmax": "> 50"}, {"smiles": "CCCCNc1ncc2c(-c3ccc(CN4CCC(OCCCOCCCc5ccc6c(c5)n(C)c(=O)n6[C@H]5CCC(=O)NC5=O)CC4)cc3)cn([C@H]3CC[C@H](O)CC3)c2n1", "note": "[I-66, 3-[5-[3-(3-[[1-([4-[2-(butylamino)-7-[trans-4-hydroxycyclohexyl]-7H-pyrrolo[2,3-d]pyrimidin-5-yl]phenyl]methyl)piperidin-4-yl]oxy]propoxy)propyl]-3-methyl-2-oxo-2,3-dihydro-1H-1,3-benzodiazol-1-yl]piperidine-2,6-dione]", "Dmax": "> 50"}, {"smiles": "Cn1c(=O)n([C@H]2CCC(=O)NC2=O)c2ccc(CCOC3CCN(C4CCN(Cc5ccc(-c6cn([C@H]7CC[C@H](O)CC7)c7nc(NCCC(F)(F)F)ncc67)cc5)CC4)CC3)cc21", "note": "[I-155, 3-[3-methyl-2-oxo-5-[2-([1-[(4-[7-[trans-4-hydroxycyclohexy1]-2-[(3,3,3-trifluoropropyl)amino]pyrrolo[2,3-d]pyrimidin-5-yl]phenyl)methyl]-[1,4-bipiperidin]-4-yl]oxy)ethyl]-1,3-benzodiazol-1-yl]piperidine-2,6-dione; formic acid]", "Dmax": "> 50"}, {"smiles": "Cn1c(=O)n(C2CCC(=O)NC2=O)c2ccc(CCCN3CCC(N4CCN(Cc5ccc(-c6cn([C@H]7CC[C@H](O)CC7)c7nc(NCCC(F)(F)F)ncc67)cc5)CC4)C3)cc21", "note": "(stereo partly drawn) [I-122, 3-[3-methyl-2-oxo-5-[3-(3-[4-[(4-[7-[trans-4-hydroxycyclohexy1]-2-[(3,3,3-trifluoropropyl)amino]-7H-pyrrolo[2,3-d]pyrimidin-5-yl]phenyl)methyl]piperazin-1-y1]pyrrolidin-1-y1)propyl]-2,3-dihydro-1H-1,3-benzodiazol-1-yl]piperidine-2,6-dione; formic acid]", "Dmax": "> 50"}, {"smiles": "CCCCNc1ncc2c(-c3ccc(S(=O)(=O)N4CCN(CCOCCOCCOCCOCC(=O)N[C@H](C(=O)N5C[C@H](O)C[C@H]5C(=O)NCc5ccc(-c6scnc6C)cc5)C(C)(C)C)CC4)cc3)nn([C@H]3CC[C@H](O)CC3)c2n1", "note": "[I-33, (2S,4R)-1-((S)-2-(tert-butyl)-17-(4-((4-(6-(butylamino)-1-(trans-4-hydroxycyclohexyl)-1H-pyrazolo[3,4-d]pyrimidin-3-yl)phenyl)sulfonyl)piperazin-1-yl)-4-oxo-6,9,12,15-tetraoxa-3-azaheptadecanoyl)-4-hydroxy-N-(4-(4-methylthiazol-5-yl)benzyl)pyrrolidine-2-carboxamide]", "Dmax": "> 50"}]}]}
